The subject of this experiment is IEC-6 cells. Put plainly: Wounding assay: migration of IEC-6 cells after mechanical wounding (96-well plate). The format is cell-based, rat.

Method: After incubation in 10% FBS supplemented DMEM for 24 hours, the cells are starved in serum-free medium for another 24 hours. […] A cell denuded area is created by scratching the cell monolayer with the eight-channel mechanical wounder fitted with p-10 pipette tips (Axygen, T-300). To ensure even contact between the tips and the bottom of the well, the pins are calibrated by adjusting the hex screw with a hex wrench. With the help of the guiding-bar, the wounder is fixed onto the 96-well plate where each channel (pipette tip) is positioned at the same level in the eight wells of the same column. During wounding, the cell monolayer is scratched by moving the wounder from the left inner edge to the right inner edge of the wells where a sharp wound is formed along the diameter of each well. The wounding procedure is then repeated for all columns of a 96-well plate.
Photomicrographs of wounds are taken at time zero (501, 503, 505), 16 hours (511, 513, 515) and 24 hours (521, 523, 525) after wounding. Images at time zero are taken to record the initial width of the wounds and the recovery of the wounded monolayers due to cell migration towards the denuded area can be evaluated at 16 and 24 hours. The images are captured using an inverted phase-contract microscope such as a TMS Nikon with 4× objective, and the width of wound can quantified by the software such as Motic image plus 2.0 software of Motic Instruments. The migration of cells towards the wounds is expressed as a percentage of wound closure where % of wound closure=[(Wt=0−Wt=16 or 24)/Wt=0]×100% where Wt=0 is the width of wound measured immediately after scratching and Wt=16 or 24 is the width of wound measured 16 hours or 24 hours after scratching.

Turning to “epithelial growth factor (NSDSECPLSHDGYCLHDGVCMYIEALDKYACNCVVGYIGERCQYRDLKWWELR; Epidermal growth factor; UniProt P01133 971-1023, looked up) [EGF, cell migration enhancer, used as the inducer of cell migration]”, the “percentage of wound closure” value (24 hours after wounding, 20 ng/ml EGF in serum-free medium (control 76%)) is given as roughly 100%. As to `NCCC[C@](N)(C(=O)O)C(F)F` [DFMO, alpha-difluoromethylornithine], the “percentage of wound closure” value is 33% (16 hours after wounding, 5 mM DFMO in serum-free medium (control about 60%)) and “around 50%” (24 hours after wounding, 5 mM DFMO in serum-free medium (control 76%)).

The values above are taken from patent US20090035844A1, “Mechanical cell wounder device and related method” (HONG KONG BAPTIST UNIVERSITY, priority 2007, published 2009).
